Experimental data: the supplement of paper PMC4862054

Tests used:
Assay in all cases: normalised response (% of control), CellTiter-Glo; higher = more viable cells (100 = DMSO, 0 = benzethonium chloride kill control)
Conditions in all cases: incubation time: 72 h
MDA-MB-231 = tested on: MDA-MB-231
Description: (§1)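 DSRT, 72 h incubation, CellTox Green / CellTiter-Glo readout. Signal is normalised to DMSO and benzethonium chloride controls. Value is the normalised response at the highest dose.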

MDA-MB-468 = tested on: MDA-MB-468
Description: as §1

HCC1143 = tested on: HCC1143
Description: as §1

MCF-10A = tested on: MCF-10A
Description: as §1

Hs578T = tested on: Hs578T
Description: as §1

CAL-51 = tested on: CAL-51
Description: as §1

MDA-MB-453 = tested on: MDA-MB-453
Description: as §1

BT-474 = tested on: BT-474
Description: as §1

HDQ-P1 = tested on: HDQ-P1
Description: as §1

SK-BR-3 = tested on: SK-BR-3
Description: as §1

CAL-148 = tested on: CAL-148
Description: as §1

CAL-85-1 = tested on: CAL-85-1
Description: as §1

MDA-MB-436 = tested on: MDA-MB-436
Description: as §1

CAL-120 = tested on: CAL-120
Description: as §1

HCC1937 = tested on: HCC1937
Description: as §1

MFM-223 = tested on: MFM-223
Description: as §1

HCC1599 = tested on: HCC1599
Description: as §1

DU-4475 = tested on: DU-4475
Description: as §1

BT-549 = tested on: BT-549
Description: as §1

| SMILES | normalised response (MDA-MB-231) | normalised response (MDA-MB-468) | normalised response (HCC1143) | normalised response (MCF-10A) | normalised response (Hs578T) | normalised response (CAL-51) | normalised response (MDA-MB-453) | normalised response (BT-474) | normalised response (HDQ-P1) | normalised response (SK-BR-3) | normalised response (CAL-148) | normalised response (CAL-85-1) | normalised response (MDA-MB-436) | normalised response (CAL-120) | normalised response (HCC1937) | normalised response (MFM-223) | normalised response (HCC1599) | normalised response (DU-4475) | normalised response (BT-549) |
| --- | --- | --- | --- | --- | --- | --- | --- | --- | --- | --- | --- | --- | --- | --- | --- | --- | --- | --- | --- |
| Clc1ccc(Nc2nnc(Cc3ccncc3)c3ccccc23)cc1 [Vatalanib] (10000 nM) | 101% | 75.2% | 98.3% | 110% | 106% | 115% | 90.3% | 94.5% | 98.4% | 95.5% | 105% | 106% | 109% | 104% | 96% | 110% | 91.5% | 95.2% | 95.5% |
| O=C1CCC(N2C(=O)c3ccccc3C2=O)C(=O)N1 (stereo not given) [Thalidomide] (10000 nM) | 94.2% | 91.6% | 94.7% | 98.8% | 96.8% | 84.7% | 97.2% | 94.6% | 98.2% | 106% | 92.4% | 93.5% | 96% | 100% | 98% | 100% | 101% | 93.3% | 96.7% |
| Cn1c(Nc2ccc(C(F)(F)F)cc2)nc2cc(Oc3ccnc(-c4ncc(C(F)(F)F)[nH]4)c3)ccc21 [RAF265] (1000 nM) | 83.5% | 50.8% | 94.2% | 86.6% | 78.2% | 52.1% | 95.8% | 79.6% | 47.2% | 92.1% | 99.9% | 40.7% | 67.7% | 67.2% | 63.7% | 48% | 73.7% | 71.8% | 68.7% |
| C=C(c1ccc(C(=O)O)cc1)c1cc2c(cc1C)C(C)(C)CCC2(C)C [Bexarotene] (10000 nM) | 105% | 110% | 101% | 82.8% | 80.8% | 98.3% | 110% | 82.1% | 106% | 72.1% | 79.9% | 101% | 95.9% | 112% | 96.6% | 95.1% | 59.5% | 100% | 99.9% |
| CCC1(c2ccc(N)cc2)CCC(=O)NC1=O (stereo not given) [Aminoglutethimide] (10000 nM) | 103% | 97.3% | 97.4% | 101% | 95.1% | 145% | 101% | 105% | 102% | 97.2% | 108% | 106% | 102% | 109% | 94.5% | 97.8% | 108% | 101% | 98.1% |
| CO[C@H]1/C=C\C=C(/C)C(=O)NC2=CC(=O)C(NCCN(C)C)=C(C[C@@H](C)C[C@H](OC)[C@H](O)[C@@H](C)/C=C(\C)[C@@H]1OC(N)=O)C2=O [Alvespimycin] (1000 nM) | 19% | 34.2% | 33.1% | 15.4% | 35.4% | 16.2% | 28.1% | 28% | 22.4% | 36% | 26.3% | 18.1% | 44.9% | 47.8% | 21.6% | 39.2% | 58.8% | 0.05% | 39.5% |
| CN[C@@H]1C[C@H]2O[C@@](C)([C@@H]1OC)n1c3ccccc3c3c4c(c5c6ccccc6n2c5c31)C(=O)N[C@H]4O [UCN-01] (10000 nM) | 1.54% | 1.36% | 8.19% | 0.69% | 2.67% | 2.83% | 5.51% | 4.43% | 2.74% | 2.06% | 9.37% | 0.55% | 7.46% | 7.18% | 7.74% | 24.1% | 13.7% | 3.81% | 0.77% |
| COc1cc2nccc(Oc3ccc(NC(=O)C4(C(=O)Nc5ccc(F)cc5)CC4)cc3)c2cc1OC [Cabozantinib] (1000 nM) | 79.2% | 87.2% | 95.3% | 94.6% | 89% | 111% | 95.4% | 83.8% | 94% | 107% | 104% | 107% | 101% | 95.2% | 95.4% | 64.6% | 102% | 102% | 104% |
| CNCc1ccc(-c2[nH]c3cc(F)cc4c3c2CCNC4=O)cc1 [Rucaparib] (10000 nM) | 75.7% | 68.9% | 94.5% | 82.8% | 93% | 93.3% | 117% | 80.9% | 85.3% | 67.7% | 71.2% | 93.7% | 85.7% | 97.8% | 79.7% | 91% | 82.2% | 74% | 81.8% |
| N[C@@H](CSC(c1ccccc1)(c1ccccc1)c1ccccc1)C(=O)O [S-trityl-L-cysteine] (40000 nM) | 91.1% | 104% | 92.8% | 104% | 89.6% | 123% | 86.2% | 89.6% | 102% | 99% | 100% | 101% | 95.3% | 101% | 93.5% | 92% | 103% | 92.3% | 106% |
| C[C@]12CC[C@@H]3c4ccc(O)cc4C[C@@H](CCCCCCCCC[S+]([O-])CCCC(F)(F)C(F)(F)F)[C@H]3[C@@H]1CC[C@@H]2O (stereo not given in full) [Fulvestrant] (1000 nM) | 98.9% | 96% | 106% | 101% | 103% | 124% | 95.6% | 99% | 101% | 104% | 104% | 95.4% | 105% | 105% | 94% | 99.3% | 103% | 110% | 99.3% |
| C#Cc1cccc(Nc2ncnc3cc(OCCOC)c(OCCOC)cc23)c1 [Erlotinib] (10000 nM) | 83.4% | 59.1% | 79.7% | 30.9% | 85.8% | 77% | 90% | 75.9% | 66.1% | 48% | 69.7% | 40.2% | 79% | 79.8% | 76.4% | 78.1% | 92.7% | 101% | 75.4% |
| Cn1c(CCCC(=O)O)nc2cc(N(CCCl)CCCl)ccc21 [Bendamustine] (10000 nM) | 109% | 116% | 111% | 114% | 103% | 132% | 120% | 99.6% | 113% | 105% | 110% | 107% | 105% | 108% | 108% | 106% | 96.6% | 101% | 101% |
| C[C@@H](Oc1cc(-c2cnn(C3CCNCC3)c2)cnc1N)c1c(Cl)ccc(F)c1Cl [Crizotinib] (1000 nM) | 83.9% | 88.1% | 102% | 102% | 95.9% | 108% | 92.2% | 84.9% | 90.7% | 104% | 99.3% | 92.7% | 102% | 104% | 101% | 97.4% | 100% | 103% | 93.1% |
| Cc1ccc(C(=O)N(CCCN)[C@@H](c2oc3cc(Cl)ccc3c(=O)c2Cc2ccccc2)C(C)C)cc1 (100 nM) | 93% | 101% | 96% | 96.8% | 100% | 72.3% | 91.6% | 95.6% | 104% | 91.9% | 88.9% | 97.8% | 88.3% | 103% | 95.5% | 97.2% | 97.5% | 92.8% | 99.6% |
| Cc1ccc(-n2nc(C(C)(C)C)cc2NC(=O)Nc2ccc(OCCN3CCOCC3)c3ccccc23)cc1 [Doramapimod] (10000 nM) | 87.5% | 72.5% | 91.3% | 94.2% | 97.8% | 105% | 82.9% | 80.3% | 82.3% | 69.5% | 75.7% | 96.1% | 99.7% | 94.8% | 77.7% | 70.2% | 68.7% | 92.7% | 104% |
| N.N.[Cl][Pt][Cl] [Cisplatin] (1000 nM) | 96.3% | 105% | 103% | 94% | 100% | 87.5% | 106% | 94% | 95.3% | 92.3% | 96.9% | 104% | 100% | 105% | 106% | 99.9% | 101% | 94.7% | 101% |
| Cc1ccc(C(=O)Nc2ccc(CN3CCN(C)CC3)c(C(F)(F)F)c2)cc1C#Cc1cnc2cccnn12 [Ponatinib] (1000 nM) | 15.5% | 69.2% | 86% | 34.4% | 53.9% | 47% | 77.3% | 30.6% | 36.5% | 68.3% | 85.4% | 58% | 64.7% | 41.2% | 60.6% | 43.7% | 108% | 77.4% | 36% |
| O=P1(NCCCl)OCCCN1CCCl (stereo not given) [Ifosfamide] (10000 nM) | 90.5% | 93.7% | 96.8% | 91.6% | 98.7% | 101% | 94.5% | 90.3% | 94% | 93.1% | 86.7% | 96.3% | 92.5% | 96.3% | 96.5% | 90% | 110% | 87.1% | 99.3% |
| CC1(C)NC(=O)N(c2ccc([N+](=O)[O-])c(C(F)(F)F)c2)C1=O [Nilutamide] (10000 nM) | 105% | 111% | 101% | 104% | 104% | 76.1% | 102% | 103% | 95.1% | 108% | 112% | 99.7% | 114% | 103% | 94.3% | 104% | 106% | 97.4% | 93.9% |
